How the values were obtained:
DHS3^WT = conditions: AAAs: from Yokoyama et al., Plant Cell, 2021; cited from earlier work
[1] = target: T1, Arabidopsis thaliana DHS2 (AtDHS2), wild type (DHS2^WT), SEQ ID NO:2 (Arabidopsis thaliana, UniProt Q00218); conditions: reference 9; cited from earlier work
T1 construct: without the predicted plastid transit peptide (amino acid residues; 49-525, 34-507, and 52-527, respectively); made in house; host or cells: E. coli Rosetta-2

sota mutant DHS enzymes = assay: DHS enzyme assay, sota mutant enzymes compared with corresponding WT enzymes; format: biochemical, Arabidopsis thaliana
Procedure: To generate recombinant DHS proteins the pET28a vectors carrying the A. thaliana DHS1 (AtDHS1), AtDHS2, or AtDHS3 WT sequence without the predicted plastid transit peptide (amino acid residues; 49-525, 34-507, and 52-527, respectively) were expressed in E. coli Rosetta-2 cells and purified using Ni-affinity chromatography, exactly as was conducted previously (9). To generate DHS proteins with individual sota mutations via site-directed mutagenesis, these pET28a plasmid templates were diluted by 500-fold, mixed with 0.04 U/μL Phusion DNA polymerase (Thermo Scientific), 0.2 mM deoxynucleoside triphosphates (dNTPs), 1× Phusion reaction buffer (Thermo Scientific), and 0.5 μM forward and reverse mutagenesis primers (Table 10). The PCR reaction was run using the following protocol: 98° C. for 30 s followed by 20 cycles of 10 s at 98° C., 20 s at 70° C., 4.5 min at 72° C. with a final extension at 72° C. for 10 min. […]
The DHS enzyme assays were conducted using the colorimetric method that we recently described (9). […] The absorbance of the pink supernatant was read at 549 nm with the microplate reader (Infinite 200 PRO, TECAN) to calculate DAHP production with the molar extinction coefficient at 549 nm (ε=549 nm) of 4.5×10^4 M^−1 cm^−1. […]

T1 sequence (Q00218 34-507): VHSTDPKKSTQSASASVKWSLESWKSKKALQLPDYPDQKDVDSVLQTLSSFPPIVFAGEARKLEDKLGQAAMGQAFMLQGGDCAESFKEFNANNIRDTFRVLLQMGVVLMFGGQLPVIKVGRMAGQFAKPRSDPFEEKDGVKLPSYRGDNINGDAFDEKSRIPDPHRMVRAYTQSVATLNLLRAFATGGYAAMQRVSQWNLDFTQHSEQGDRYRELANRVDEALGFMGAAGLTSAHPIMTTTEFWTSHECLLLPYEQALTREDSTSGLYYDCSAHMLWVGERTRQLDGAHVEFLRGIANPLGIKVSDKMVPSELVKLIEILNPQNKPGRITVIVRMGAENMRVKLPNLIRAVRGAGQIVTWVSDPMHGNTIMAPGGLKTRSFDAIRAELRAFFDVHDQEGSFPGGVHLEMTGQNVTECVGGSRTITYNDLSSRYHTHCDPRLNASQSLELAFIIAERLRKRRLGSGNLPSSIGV

## N[C@@H](Cc1c[nH]c2ccccc12)C(=O)O [Trp, tryptophan]
DHS3^WT
  IC50 of effector molecule on DHS3^WT: Not inhibited
[1]
  inhibition of DHS2: inhibit Arabidopsis DHS2

## O=C(O)C(=O)Cc1ccc(O)cc1 [HPP, 4-Hydroxyphenylpyruvate]
Sota mutant DHS enzymes
  increase of IC50 in sota mutant enzymes over corresponding WT enzymes: up to 7 fold

Source: patent publication US20250043299A1, “POINT MUTATIONS THAT BOOST AROMATIC AMINO ACID PRODUCTION AND CO2 ASSIMILATION IN PLANTS” (Wisconsin Alumni Research Foundation, priority 2021, published 2025)
